Assay results published in patent US9199927B2, “Guanidinobenzoic acid compound” (Astellas Pharma Inc., priority 2011, dated 2015).
Structures can show the parent of a compound that is named as a salt. Where two headings read alike, the source gives them in different places.

Experiments:
[1] = target: mouse trypsin (m-trypsin); assay: Inhibitory activity of trypsin enzyme (mouse trypsin purified from small intestine contents, BZiPAR fluorescent substrate); assay type: biochemical; conditions: mouse trypsin diluted 1/50, BZiPAR substrate, 30 minutes at room temperature
Source text: (§1) 1. Inhibitory Activity of Trypsin Enzyme in Humans and Mice
(§2) In the experiment, human recombinant trypsin (r-h trypsin; manufactured by WAKO, cat. #206-17171) and mouse trypsin (m-trypsin; purified from the mouse small intestine contents by the present Company) were used.
The method to extract the trypsin from the mouse small intestine is shown below.
The small intestine contents and the gastrointestinal tract of 10 mice were suspended in PBS using Polytron and subjected to centrifugation at 15,000×g several times. The supernatant was mixed at 4° C. for 16 hours with a Benzamidine Sepharose 4 Fast Flow Resin (GE Healthcare: #17-5123-10). After washing the resin with PBS, m-trypsin was eluted with a glycine elution buffer (pH 3.0).
(§3) The outline of the measurement method is shown below.
(§4) The compound was dissolved in dimethyl sulfoxide (DMSO), and diluted to an arbitrary concentration (A). A was 100-fold diluted with a buffer (0.1 M Tris (pH 8.0), 0.15 M NaCl, 10 mM CaCl2, 0.05% Brij38) (B). The r-h trypsin was diluted with a buffer to 0.088 μg/mL, and the m-trypsin was diluted with a buffer to 1/50 (C). […] The substrate solution of a substrate for the enzyme reaction, BZiPAR, (Rhodamine Reference Substrate) was diluted with a buffer to 5 μmol/L (D). B; 5 μL, C; 5 μL, and D; 10 μL were added to a 384-plate, and incubated at room temperature for 30 minutes. The fluorescent signals were detected with Ex/Em=497/520 using Tecan Safire Fluorometer. […] Based on the obtained inhibitory rates, IC50 values (nM) were calculated from the non-linear regression. The test was carried out in the same manner, using camostat as a control compound.
(§5) Ex in the table represents the Example No. as denoted below.

[2] = target: human recombinant trypsin (r-h trypsin) (Homo sapiens (Human), UniProt P07477); assay: Inhibitory activity of trypsin enzyme (human recombinant trypsin, BZiPAR fluorescent substrate); assay type: biochemical; conditions: human recombinant trypsin 0.088 μg/mL, 30 minutes at room temperature
Description: as §1, §2, §3, §4, §5

ICR mice = assay: Increasing study of fecal protein concentration in mice; assay type: in vivo; conditions: Mus musculus, 5 mg/kg oral, feces collected 3 to 9 hours after, control = 1, read-out: protein increasing activity in feces, fold vs control
Description: 2. Increasing Study of Fecal Protein Concentration in Mice
For the experiment, 6-weeks old ICR mice (male) were used, and the experiment was carried out in five per group. After fasting the mice for 15 hours, the control group was forcibly orally administered with a 0.5% methyl cellulose (MC) solution, and the test drug group was forcibly orally administered (5 mg/kg) with a solution or suspension obtained by dissolving or suspending the compound in the 0.5% MC solution. The fasting was stopped immediately thereafter, free feeding (CE-2) started and then the feces were collected from after 3 hours to after 9 hours. All of the obtained feces were dissolved and suspended in 6 mL of distilled water, and centrifuged for 10 minutes at 3000 rpm. The protein concentration in the supernatant was measured by a Bradford method, and the amount of the protein in 1 g of feces was calculated by dividing the protein concentration in the feces by the total weight of feces. Further, the efficacy was investigated from the ratio to the control. For the compounds that were evaluated multiple times, the average values were calculated.
For some representative compounds, the protein increasing activities in feces are shown in Table 2, assuming a value for the control as 1. Ex in the table represents the Example No. as denoted below of the test compound.

IC50 [1] [nM] | IC50 [2] [nM] | SMILES | response vs control in vivo at 5 mg/kg (ICR mice) [%] | response vs control in vivo at 5 mg/kg (ICR mice; po, 9 h) [%]
0.6 | 0.88 | CN(C(=O)Cc1ccc(OC(=O)c2ccc(NC(=N)N)cc2)cc1Cl)[C@@H](Cc1ccccc1)C(=O)O [Example 33] | – | –
0.45 | 0.35 | N=C(N)Nc1ccc(C(=O)Oc2ccc(CCN(CC(=O)O)C(=O)Cc3cccc(C(=O)O)c3)c(Cl)c2)cc1 [Example 66] | – | –
0.64 | 0.66 | CC(C)(Oc1ccc(C[C@H](NC(=O)Cc2ccc(OC(=O)c3ccc(NC(=N)N)cc3)cc2Cl)C(=O)O)cc1)C(=O)O [Example 95] | 188 | –
0.27 | 0.43 | N=C(N)Nc1ccc(C(=O)Oc2ccc(CC(=O)N[C@@H](Cc3ccccc3)C(=O)O)c(-c3ccccc3)c2)cc1 [Example 17] | – | –
– | – | COc1ccc(C[C@H](NC(=O)Cc2ccc(OC(=O)c3ccc(NC(=N)N)cc3)cc2Cl)C(=O)O)cc1 [Example 16] | – | 170
0.4 | 0.51 | N=C(N)Nc1ccc(C(=O)Oc2ccc(CCC(=O)NC(Cc3ccccc3)C(=O)O)c(Cl)c2)cc1 (stereo not shown) [Example 131] | – | –
0.56 | 0.4 | N=C(N)Nc1ccc(C(=O)Oc2ccc(CCC(=O)N(Cc3cccc(C(=O)O)c3)Cc3cccc(C(=O)O)c3)c(Cl)c2)cc1 [Example 93] | – | –
0.19 | 0.17 | N=C(N)Nc1ccc(C(=O)Oc2ccc(CC(=O)N[C@@H](Cc3ccc(O)cc3)C(=O)O)c(Cl)c2)cc1 [Example 1, N-({4-[(4-carbamimidamidobenzoyl)oxy]-2-chlorophenyl}acetyl)-L-tyrosine hydrochloride] | – | –
0.2 | 0.29 | N=C(N)Nc1ccc(C(=O)Oc2ccc3nc(C(=O)Nc4ccc(CC(=O)O)cc4)ccc3c2)cc1 [Example 22] | – | –
0.7 | 0.37 | N=C(N)Nc1ccc(C(=O)Oc2ccc(CCC(=O)N(CC(=O)O)Cc3cc(C(=O)O)cc(C(=O)O)c3)c(Cl)c2)cc1 [Example 64] | 198 | –
0.18 | 0.29 | N=C(N)Nc1ccc(C(=O)Oc2ccc(CC(=O)N[C@@H](Cc3ccccc3)C(=O)O)c(Cl)c2Cl)cc1 [Example 26] | – | –
0.45 | 0.5 | N=C(N)Nc1ccc(C(=O)Oc2ccc(CC(=O)N(CC(=O)O)[C@@H](Cc3ccccc3)C(=O)O)c(Cl)c2)cc1 [Example 40] | – | –
0.38 | 0.42 | N=C(N)Nc1ccc(C(=O)Oc2ccc(CC(=O)N(CCC(=O)O)[C@@H](Cc3ccccc3)C(=O)O)c(Cl)c2)cc1 [Example 54] | – | –
– | – | N=C(N)Nc1ccc(C(=O)Oc2ccc3cc(C(=O)N[C@@H](Cc4ccccc4)C(=O)O)[nH]c3c2)cc1 [Example 119] | – | 139
0.39 | 0.42 | CN(C(=O)CN(CC(=O)O)Cc1cccc(C(=O)O)c1)c1ccc(OC(=O)c2ccc(NC(=N)N)cc2)cc1Cl [Example 94] | – | –
0.34 | 0.38 | N=C(N)Nc1ccc(C(=O)Oc2ccc(CCCCC(=O)N[C@@H](Cc3ccccc3)C(=O)O)c(Cl)c2)cc1 [Example 37] | – | –
0.84 | 0.91 | N=C(N)Nc1ccc(C(=O)Oc2ccc(CC(=O)N[C@@H](Cc3ccc(C(=O)O)cc3)C(=O)O)c(Cl)c2)cc1 [Example 13] | 185 | –
0.45 | 0.76 | N=C(N)Nc1ccc(C(=O)Oc2ccc(CCC(=O)Nc3ccc(CC(=O)O)cc3)c(Cl)c2)cc1 [Example 11] | – | –
0.14 | 0.23 | CN(C(=O)N(CC(=O)O)Cc1cccc(C(=O)O)c1)c1ccc(OC(=O)c2ccc(NC(=N)N)cc2)cc1Cl [Example 61] | 167 | –
0.49 | 0.92 | N=C(N)Nc1ccc(C(=O)Oc2ccc(CC(=O)N[C@@H](Cc3c[nH]cn3)C(=O)O)c(Cl)c2)cc1 [Example 2, N-({4-[(4-carbamimidamidobenzoyl)oxy]-2-chlorophenyl}acetyl)-L-histidine 2 hydrochloride] | – | –
0.25 | 0.29 | N=C(N)Nc1ccc(C(=O)Oc2ccc(CC(=O)N[C@@H](Cc3ccccc3)C(=O)O)c(C(F)(F)F)c2)cc1 [Example 25] | – | –

IC50 [1] [nM] | IC50 [2] [nM] | SMILES | response vs control in vivo at 5 mg/kg (ICR mice) [%] | response vs control in vivo at 5 mg/kg (ICR mice; po, 9 h) [%]
0.17 | 0.29 | N=C(N)Nc1ccc(C(=O)Oc2ccc(CCC(=O)N(CC(=O)O)Cc3ccccc3)c(Cl)c2)cc1 [Example 62] | – | –
0.34 | 0.31 | N=C(N)Nc1ccc(C(=O)Oc2ccc(CC(=O)N[C@@H](Cc3ccc(C(F)(F)F)cc3)C(=O)O)c(Cl)c2)cc1 [Example 31] | – | –
0.19 | 0.26 | N=C(N)Nc1ccc(C(=O)Oc2cc(Cl)c(CC(=O)N[C@@H](Cc3ccccc3)C(=O)O)c(Cl)c2)cc1 [Example 27] | – | –
0.45 | 0.4 | N=C(N)Nc1ccc(C(=O)Oc2ccc(CCN(CC(=O)O)Cc3cccc(C(=O)O)c3)c(Cl)c2)cc1 [Example 65] | – | –
0.21 | 0.31 | N=C(N)Nc1ccc(C(=O)Oc2ccc(CC(=O)N[C@@H](Cc3ccccc3F)C(=O)O)c(Cl)c2)cc1 [Example 29] | – | –
0.19 | 0.26 | N=C(N)Nc1ccc(C(=O)Oc2ccc(CC(=O)N[C@@H](Cc3cccc(F)c3)C(=O)O)c(Cl)c2)cc1 [Example 30] | – | –
– | – | N=C(N)Nc1ccc(C(=O)Oc2ccc(CCC(=O)N(CC(=O)O)Cc3csc(C(=O)O)c3)c(Cl)c2)cc1 [Example 63] | – | 184
0.28 | 0.44 | N=C(N)Nc1ccc(C(=O)Oc2ccc(CC(=O)N(CCc3ccccc3)CC(=O)O)c(Cl)c2)cc1 [Example 35] | – | –
0.68 | 0.73 | N=C(N)Nc1ccc(C(=O)Oc2ccc(CCC(=O)N(CCc3cccc(C(=O)O)c3)CC(=O)O)c(Cl)c2)cc1 [Example 58] | 179 | –
0.23 | 0.18 | N=C(N)Nc1ccc(C(=O)Oc2ccc3nc(C(=O)N[C@@H](Cc4ccc(OCC(=O)O)cc4)C(=O)O)ccc3c2)cc1 [Example 71] | – | –
0.17 | 0.21 | N=C(N)Nc1ccc(C(=O)Oc2cc(F)c(CC(=O)N[C@@H](Cc3ccccc3)C(=O)O)c(F)c2)cc1 [Example 24] | – | –
0.24 | 0.36 | N=C(N)Nc1ccc(C(=O)Oc2ccc(CC(=O)N[C@@H](Cc3ccccc3)C(=O)O)c(C3CC3)c2)cc1 [Example 34] | – | –
0.39 | 0.3 | N=C(N)Nc1ccc(C(=O)Oc2ccc(CCC(=O)NCc3ccccc3C(=O)O)c(Cl)c2)cc1 [Example 52] | 182 | –
0.66 | 0.57 | N=C(N)Nc1ccc(C(=O)Oc2ccc(CCC(=O)N(CCC(=O)O)Cc3cccc(C(=O)O)c3)c(Cl)c2)cc1 [Example 45] | 165 | –
– | – | N=C(N)Nc1ccc(C(=O)Oc2ccc3nc(C(=O)N(CC(=O)O)Cc4ccc(CC(=O)O)cc4)ccc3c2)cc1 [Example 113] | – | 193
0.39 | 0.49 | N=C(N)Nc1ccc(C(=O)Oc2ccc(CCC(=O)N(CC(=O)O)Cc3cccc(CC(=O)O)c3)c(Cl)c2)cc1 [Example 78] | 167 | –
0.47 | 0.46 | N=C(N)Nc1ccc(C(=O)Oc2ccc(CCCC(=O)N(CC(=O)O)Cc3cccc(C(=O)O)c3)c(Cl)c2)cc1 [Example 51] | – | –
0.64 | 0.88 | N=C(N)Nc1ccc(C(=O)Oc2ccc(CC(=O)N[C@@H](Cc3ccc(OCC(=O)O)cc3)C(=O)O)c(Cl)c2)cc1 [Example 56] | 202 | –
– | – | N=C(N)Nc1ccc(C(=O)Oc2ccc(CC(=O)N[C@@H](Cc3ccc(Cl)cc3)C(=O)O)c(Cl)c2)cc1 [Example 15] | – | 167
– | – | N=C(N)Nc1ccc(C(=O)Oc2ccc(CCC(=O)N(CC(=O)O)c3cccc(CC(=O)O)c3)c(Cl)c2)cc1 [Example 41] | – | 177
